Results reported in patent US20110245316A1, “PREVENTION OR DELAY OF ONSET OF ORAL MUCOSITIS” (SCICLONE PHARMACEUTICALS, INC., priority 2010, published 2011).

Tested on: oral mucositis in patients receiving chemoradiation for head and neck cancer
Assay: Phase 2 randomized, double-blind, placebo-controlled trial: onset of oral mucositis (WHO OM Scale) in patients receiving CT/RT
Assay type: in vivo, human
Excerpt: OM is a painful, debilitating, and costly toxicity of different chemoradiotherapy (CT/RT) regimens used to treat head and neck cancer. This trial is a phase 2, randomized, double-blind, dose-ranging, placebo-controlled three-arm study in patients receiving CT/RT for the treatment of head and neck cancer, to assess the safety and tolerability of γ-D-glutamyl-L-tryptophan (SCV-07) as well as its efficacy in delaying the onset of severe OM as assessed by the WHO Oral Mucositis Scale.
The WHO OM Scale is the standard, validated instrument used in clinical trials to measure OM: Grade 0=none; Grade 1=erythema and soreness, no ulcers; Grade 2=ulcers, able to eat a solid diet; Grade 3=ulcers; requires a liquid diet; Grade 4=ulcers, not able to tolerate a solid or liquid diet, requires IV or tube feeding.
59 eligible patients with recently diagnosed, treatment naïve, pathologically-confirmed, non-metastatic squamous cell carcinoma of the oral cavity, oropharynx, hypopharynx or larynx were enrolled and treated with a concomitant regimen of CT/RT consisting of a continuous course of external beam irradiation (IMRT eligible) with a minimum cumulative dose of 50 Gray (Gy) and cisplatin monotherapy administered using standard weekly or tri-weekly dosing regimens (80-100 mg/m^2 administered on Days 0, 21 and 42) or weekly (30-40 mg/m^2). At least two ‘at risk’ intraoral sites were included in the radiation fields and received a cumulative RT dose of at least 50 Gy. Subjects were equally randomized to receive either placebo or one of two doses of γ-D-glutamyl-L-tryptophan (0.02 or 0.1 mg/kg) on each radiation day for up to 7 weeks.
Tables 2-7 summarize the statistics for the Full Analysis Set “FAS” (57 subjects), and the completer population (52 subjects), with respect to delay of onset of severe oral mucositis. Also see FIGS. 1 and 2.
SCV-07 efficacy, dosing and scheduling parameters were assessed in hamster models of acute, fractionated and concomitant chemoradiation (CRT). […] A multicenter, prospective, blinded, randomized trial evaluated SCV-07's ability to alter OM in CRT-treated HNC patients (n=57). Cytokine and gene microarray analyses were performed for samples obtained before and on the last radiation day.

[1] = 0.02 mg/kg vs placebo, Completer Population
[2] = 0.02 mg/kg, Completer Population
[3] = 0.02 mg/kg, Completer Population, at 30-<35 Gy
[4] = 0.02 mg/kg, Completer Population, at 35-<40 Gy
[5] = 0.02 mg/kg, Completer Population, at 40-<45 Gy
[6] = 0.02 mg/kg, Completer Population, at 45-<50 Gy
[7] = 0.02 mg/kg, Completer Population, at 50-<55 Gy
[8] = 0.02 mg/kg, Completer Population, at 55-<60 Gy
[9] = 0.02 mg/kg, Completer Population, at 65-<70 Gy
[10] = 0.02 mg/kg, Completer Population, at ≧70 Gy
[11] = 0.10 mg/kg vs placebo, Completer Population
[12] = 0.10 mg/kg, Completer Population

## N[C@H](CCC(=O)N[C@@H](Cc1c[nH]c2ccccc12)C(=O)O)C(=O)O [SCV-07, γ-D-glutamyl-L-tryptophan]
[1]
  Cox Regression Analysis of Time to Initial Occurrence of Sever OM, Hazard Ratio (95% CI): 1.884 (0.840, 4.225)
  Cox Regression Analysis of Time to Initial Occurrence of Ulcerative OM, Hazard Ratio (95% CI): 0.737 (0.377, 1.444)
0.02 mg/kg vs placebo, FAS population
  Cox Regression Analysis of Time to Initial Occurrence of Severe OM, Hazard Ratio (95% CI): 1.989 (0.908, 4.357)
[2]
  Cumulative Dose of RT (Gy) at Initial Onset of Severe OM, Max: 70 Gy
  Cumulative Dose of RT (Gy) at Initial Onset of Severe OM, Mean (SD): 43 (18.7) Gy
  Cumulative Dose of RT (Gy) at Initial Onset of Severe OM, Median: 34 Gy
  Cumulative Dose of RT (Gy) at Initial Onset of Severe OM, Min: 18 Gy
  Cumulative Dose of RT (Gy) at Initial Onset of Ulcerative OM, Max: 62 Gy
  Cumulative Dose of RT (Gy) at Initial Onset of Ulcerative OM, Mean (SD): 24 (12.9) Gy
  Cumulative Dose of RT (Gy) at Initial Onset of Ulcerative OM, Median: 22 Gy
  Cumulative Dose of RT (Gy) at Initial Onset of Ulcerative OM, Min: 6 Gy
  Cumulative Dose of Radiation (Gy) Prior to Initial Occurrence of Severe OM (Delay to Onset of Severe OM), K-M Estimate, Mean (SE): 42 (4.2) Gy
  Cumulative Dose of Radiation (Gy) Prior to Initial Occurrence of Severe OM, K-M Estimate, 25%-75%: 28-62 Gy
  Cumulative Dose of Radiation (Gy) Prior to Initial Occurrence of Severe OM, K-M Estimate, Median (95% CI): 34 (28, 62) Gy
  Cumulative Dose of Radiation (Gy) Prior to Initial Occurrence of Ulcerative OM (Delay to Onset of Ulcerative OM), K-M Estimate, Mean (SE): 24 (3.1) Gy
  Cumulative Dose of Radiation (Gy) Prior to Initial Occurrence of Ulcerative OM, K-M Estimate, 25%-75%: 18-30 Gy
  Cumulative Dose of Radiation (Gy) Prior to Initial Occurrence of Ulcerative OM, K-M Estimate, Median (95% CI): 22 (18, 30) Gy
  Time (Days) to Initial Occurrence of Sever OM, K-M Estimate, 25%-7%: 18 to 42 days
  Time (Days) to Initial Occurrence of Sever OM, K-M Estimate, Mean (SE): 28 (3.0) Days
  Time (Days) to Initial Occurrence of Sever OM, K-M Estimate, Median (95% CI): 25 (18, 42) Days
  Time (Days) to Initial Occurrence of Ulcerative OM, K-M Estimate, 25%-7%: 10 to 20 days
  Time (Days) to Initial Occurrence of Ulcerative OM, K-M Estimate, Mean (SE): 16 (2.2) Days
  Time (Days) to Initial Occurrence of Ulcerative OM, K-M Estimate, Median (95% CI): 15 (10, 20) Days
0.02 mg/kg, Completer Population, at 5-<10 Gy
  Cum. Percent of Subjects with Ulcerative OM (WHO > 1): 6% (1%, 35%)
0.02 mg/kg, Completer Population, at 10-<15 Gy
  Cum. Percent of Subjects with Ulcerative OM (WHO > 1): 18% (6%, 45%)
0.02 mg/kg, Completer Population, at 15-<20 Gy
  Cum. Percent of Subjects with Ulcerative OM (WHO > 1): 41% (22%, 67%)
0.02 mg/kg, Completer Population, at 20-<25 Gy
  Cum. Percent of Subjects with Ulcerative OM (WHO > 1): 59% (37%, 81%)
0.02 mg/kg, Completer Population, at 25-<30 Gy
  Cum. Percent of Subjects with Ulcerative OM (WHO > 1): 76% (55%, 93%)
[3]
  Cum. Percent of Subjects with Severe OM (WHO > 2): 53% (32%, 77%)
  Cum. Percent of Subjects with Ulcerative OM (WHO > 1): 88% (69%, 98%)
[4]
  Cum. Percent of Subjects with Severe OM (WHO > 2): 53% (32%, 77%)
  Cum. Percent of Subjects with Ulcerative OM (WHO > 1): 94% (76%, 100%)
[5]
  Cum. Percent of Subjects with Severe OM (WHO > 2): 59% (37%, 81%)
  Cum. Percent of Subjects with Ulcerative OM (WHO > 1): 94% (76%, 100%)
[6]
  Cum. Percent of Subjects with Severe OM (WHO > 2): 59% (37%, 81%)
  Cum. Percent of Subjects with Ulcerative OM (WHO > 1): 94% (76%, 100%)
[7]
  Cum. Percent of Subjects with Severe OM (WHO > 2): 65% (43%, 86%)
  Cum. Percent of Subjects with Ulcerative OM (WHO > 1): 94% (76%, 100%)
[8]
  Cum. Percent of Subjects with Severe OM (WHO > 2): 71% (49%, 89%)
  Cum. Percent of Subjects with Ulcerative OM (WHO > 1): 94% (76%, 100%)
0.02 mg/kg, Completer Population, at 60-<65 Gy
  Cum. Percent of Subjects with Ulcerative OM (WHO > 1): 100% (76%, 100%)
0.02 mg/kg, Completer Population, at 60->65 Gy
  Cum. Percent of Subjects with Severe OM (WHO > 2): 78% (56%, 94%)
[9]
  Cum. Percent of Subjects with Severe OM (WHO > 2): 78% (56%, 94%)
  Cum. Percent of Subjects with Ulcerative OM (WHO > 1): 100% (76%, 100%)
0.02 mg/kg, Completer Population, at <5 Gy
  Cum. Percent of Subjects with Ulcerative OM (WHO > 1): 0% (0%, 0%)
0.02 mg/kg, Completer Population, at <30 Gy
  Cum. Percent of Subjects with Severe OM (WHO > 2): 35% (18%, 62%)
[10]
  Cum. Percent of Subjects with Severe OM (WHO > 2): 78% (56%, 94%)
  Cum. Percent of Subjects with Ulcerative OM (WHO > 1): 100% (76%, 100%)
0.02 mg/kg, FAS population
  Cumulative Dose of RT (Gy) at Initial Onset of Severe OM, Max: 70 Gy
  Cumulative Dose of RT (Gy) at Initial Onset of Severe OM, Mean (SD): 41 (18.0) Gy
  Cumulative Dose of RT (Gy) at Initial Onset of Severe OM, Median: 33 Gy
  Cumulative Dose of RT (Gy) at Initial Onset of Severe OM, Min: 18 Gy
  Cumulative Dose of Radiation (Gy) Prior to Initial Occurrence of Severe OM (Delay to Onset of Severe OM), K-M Estimate, Mean (SE): 41 (3.8) Gy
  Cumulative Dose of Radiation (Gy) Prior to Initial Occurrence of Severe OM, K-M Estimate, 25%-75%: 28-62 Gy
  Cumulative Dose of Radiation (Gy) Prior to Initial Occurrence of Severe OM, K-M Estimate, Median (95% CI): 34 (29, 59) Gy
  Time (Days) to Initial Occurrence of Severe OM, K-M Estimate, 25%-7%: 18 to 42 days
  Time (Days) to Initial Occurrence of Severe OM, K-M Estimate, Mean (SE): 28 (2.7) Days
  Time (Days) to Initial Occurrence of Severe OM, K-M Estimate, Median (95% CI): 24 (19, 41) Days
0.02 mg/kg, FAS population, at 30-<35 Gy
  Cum. Percent of Subjects with Severe OM (WHO > 2): 52% (32%, 75%)
0.02 mg/kg, FAS population, at 35-<40 Gy
  Cum. Percent of Subjects with Severe OM (WHO > 2): 58% (37%, 79%)
0.02 mg/kg, FAS population, at 40-<45 Gy
  Cum. Percent of Subjects with Severe OM (WHO > 2): 63% (42%, 83%)
0.02 mg/kg, FAS population, at 45-<50 Gy
  Cum. Percent of Subjects with Severe OM (WHO > 2): 63% (42%, 83%)
0.02 mg/kg, FAS population, at 50-<55 Gy
  Cum. Percent of Subjects with Severe OM (WHO > 2): 68% (47%, 87%)
0.02 mg/kg, FAS population, at 55-<60 Gy
  Cum. Percent of Subjects with Severe OM (WHO > 2): 73% (53%, 90%)
0.02 mg/kg, FAS population, at 60-<65 Gy
  Cum. Percent of Subjects with Severe OM (WHO > 2): 80% (59%, 94%)
0.02 mg/kg, FAS population, at 65-<70 Gy
  Cum. Percent of Subjects with Severe OM (WHO > 2): 80% (59%, 94%)
0.02 mg/kg, FAS population, at >30 Gy
  Cum. Percent of Subjects with Severe OM (WHO > 2): 36% (19%, 61%)
0.02 mg/kg, FAS population, at ≧70 Gy
  Cum. Percent of Subjects with Severe OM (WHO > 2): 80% (59%, 94%)
[11]
  Cox Regression Analysis of Time to Initial Occurrence of Sever OM, Hazard Ratio (95% CI): 1.002 (0.433, 2.319)
  Cox Regression Analysis of Time to Initial Occurrence of Ulcerative OM, Hazard Ratio (95% CI): 0.475 (0.225, 1.004)
0.10 mg/kg vs placebo, FAS population
  Cox Regression Analysis of Time to Initial Occurrence of Severe OM, Hazard Ratio (95% CI): 1.100 (0.484, 2.500)
[12]
  Cumulative Dose of RT (Gy) at Initial Onset of Severe OM, Max: 72 Gy
  Cumulative Dose of RT (Gy) at Initial Onset of Severe OM, Mean (SD): 55 (14.8) Gy
  Cumulative Dose of RT (Gy) at Initial Onset of Severe OM, Median: 57 Gy
  Cumulative Dose of RT (Gy) at Initial Onset of Severe OM, Min: 20 Gy
  Cumulative Dose of RT (Gy) at Initial Onset of Ulcerative OM, Max: 68 Gy
  Cumulative Dose of RT (Gy) at Initial Onset of Ulcerative OM, Mean (SD): 31 (16.6) Gy
